Results as given in ChEMBL document CHEMBL4184266, “Bacicyclin, a new antibacterial cyclic hexapeptide from Bacillus sp. strain BC028 isolated from Mytilus edulis” (Bioorg Med Chem Lett, 2018).
In brackets after ≈: the same amount, converted by molar mass. Activity calls are given as the source filed them. No cut-off for these calls is given here.

Columns and labels:
[1] = Cytotoxicity against mouse J774.1 cells incubated for 24 hrs and measured 48 and 72 hrs post dye addition by Alamar blue dye based assay; type: cell-based
[2] = tested on: Enterococcus faecium; experiment: Antibacterial activity against Enterococcus faecium 6413 assessed as inhibition of bacterial growth incubated for 18 hrs by […]; type: functional, organism-based
[3] = tested on: Staphylococcus epidermidis; experiment: Antibacterial activity against Staphylococcus epidermidis RP62A assessed as inhibition of bacterial growth incubated for 18 hrs by […]; type: functional, organism-based
[4] = tested on: Escherichia coli; experiment: Antibacterial activity against Escherichia coli 536 assessed as inhibition of bacterial growth incubated for 18 hrs by […]; type: functional, organism-based
[5] = tested on: Pseudomonas aeruginosa; experiment: Antibacterial activity against Pseudomonas aeruginosa isolate number 3 assessed as inhibition of bacterial growth incubated for 18 hrs by […]; type: functional, organism-based
[6] = tested on: Enterococcus faecalis; experiment: Antibacterial activity against Enterococcus faecalis JH212 assessed as inhibition of bacterial growth incubated for 18 hrs by […]; type: functional; conditions: JH212, 18 h
[7] = tested on: Staphylococcus aureus; experiment: Antibacterial activity against Staphylococcus aureus NCTC 8325 assessed as inhibition of bacterial growth incubated for 18 hrs by […]; type: functional; conditions: NCTC 8325, 18 h

**Q.** For CC[C@H](C)[C@@H]1NC(=O)[C@H](C(C)C)NC(=O)[C@H](CC(C)C)NC(=O)CNC(=O)[C@@H](Cc2ccccc2)NC(=O)[C@@H](C)NC1=O [listing 1 of 2 here], which CC50 at 24 h [1] is on record?
**A.** The CC50 at 24 h was greater than 200 µM.

**Q.** Which “growth inhibition (GI)” value [2] does the source give for CC[C@H](C)[C@@H]1NC(=O)[C@@H](C)NC(=O)[C@@H](Cc2ccccc2)NC(=O)CNC(=O)[C@H](CC(C)C)NC(=O)[C@H](C(C)C)NC1=O here?
**A.** Its value is “inactive”.

**Q.** And the “growth inhibition (GI)” value [3]?
**A.** The value was “inactive”.

**Q.** What about the “growth inhibition (GI)” value [4] of the same molecule?
**A.** Its value is “inactive”.

**Q.** What about the “growth inhibition (GI)” value [5] of the same molecule?
**A.** The value was “inactive”.

**Q.** What does the source list for CC[C@H](C)[C@@H]1NC(=O)[C@H](C(C)C)NC(=O)[C@H](CC(C)C)NC(=O)CNC(=O)[C@@H](Cc2ccccc2)NC(=O)[C@@H](C)NC1=O [listing 2 of 2 here]?
**A.** MIC [6]: 8 µM (≈ 4.81 µg/mL); MIC [7]: 12 µM (≈ 7.21 µg/mL)

**Q.** For CN[C@@H]1[C@H](O[C@H]2[C@H](O[C@H]3[C@H](O)[C@@H](O)[C@H](N=C(N)N)[C@@H](O)[C@@H]3N=C(N)N)O[C@@H](C)[C@]2(O)C=O)O[C@@H](CO)[C@H](O)[C@H]1O [STREPTOMYCIN], which MIC [6] is on record?
**A.** Its MIC is 5.24 µM (≈ 3.05 µg/mL).

**Q.** And the MIC [7]?
**A.** Its MIC is 2.09 µM (≈ 1.22 µg/mL).
